Read-outs that look alike come from different tables or passages of the source.
How the values were obtained:
[1] = test system: Plasmodium falciparum 3D7; experiment: Transmission electron microscope analysis of parasite morphology; assay type: cell-based; details: TEM
Description: 3D7 strain parasites with parasitemia of 3% ~ 5% at a hematocrit of 2% were planted in 12-well plates, 3 mL/well. A 40-µM concentration of An-cecB or 200 µM An-cecB-1 was added and incubated for 30 min or 60 min. PBS was used as a control.
After incubation, the parasites were washed three times with ICM, and the electron microscope fixative solution (provided by the company) was added to keep the parasites clumped for 2 hours at room temperature. Finally, the samples were sent to a commercial company at 4°C for transmission electron microscope analysis.

[2] = test system: Staphylococcus aureus (ATCC 6538); experiment: Antimicrobial assay, broth dilution; assay type: cell-based; details: S. aureus
Description: (§1) Gram-positive bacteria S. aureus, B. subtilis, and Gram-negative E. coli were used in antimicrobial assays. Bacteria were first grown in LB (Luria-Bertani) broth to an absorbance of 0.8 at 600 nm. The antibacterial behavior of the peptides was studied via the agar disc diffusion assay and broth microdilution method ([41], [42]). The agar plates were made by pouring 20 mL of LB broth containing 1.5% agar into 60-mm Petri dishes. Then, a 100-µL bacterial suspension (10^6 CFU/mL) was spread over the LB agar plate. Ten microliters of the 2-mg/mL peptide sample was carefully dropped onto sterile 2-mm diameter paper discs that had been previously attached to the plate. The plates were carefully placed in an incubator at 37°C for 24 hours. If an examined sample had antimicrobial activity, a clear zone was observed around the filter paper representing inhibition of bacterial growth. The MIC was determined by the broth dilution method, and the absorbance value was measured at an optical density at 600 nm (OD600) to determine the inhibition rate of peptides at different concentrations against each bacteria. Then, the MIC at which no visible growth occurred was recorded ([38]). The MIC50 was calculated by GraphPad Prism.

[3] = test system: Escherichia coli (ATCC 25922); experiment: Antimicrobial assay, broth dilution; assay type: cell-based; details: E. coli
Description: as §1

Bacillus subtilis (ATCC) = experiment: Antimicrobial assay, broth dilution; assay type: cell-based; details: B. subtilis
Description: as §1

[4] = test system: methyl-β-cyclodextrin-treated RBCs; experiment: Hemolytic activity on cholesterol-depleted erythrocytes; assay type: cell-based, human; details: RBCs treated with 7.5 mM methyl-β-cyclodextrin for 2 hours at 37°C
Excerpt: Cholesterol is the main component of the RBC membrane and is important for maintaining its stability ([39]). Plasmodium falciparum infection efficiently depletes the red blood cells of cholesterol, which renders […] membranes susceptible to lysis ([40]). Therefore, methyl-β-cyclodextrin treatment was used to simulate the RBC cholesterol depletion caused by infection with Plasmodium. RBCs were washed once and then resuspended with PBS at 0.5% hematocrit. After treatment with the indicated concentration (7.5 mM) of methyl-β-cyclodextrin (Sigma) in RPMI for 2 hours at 37°C, the treated RBCs were washed with PBS and hemolysis assays were performed as described above. Two independent tests with five technical replicates were performed for each hemolysis assay.

[5] = test system: RBCs infected by schizonts of P. falciparum 3D7; experiment: Hemolytic activity on RBCs infected by schizonts; assay type: cell-based, human; details: percoll-purified 3D7 schizonts, 2% hematocrit in PBS
Description: To test the hemolytic activity of the peptides against RBCs infected by Plasmodium, schizonts of the P. falciparum 3D7 strain were collected. The parasite culture of mainly schizonts was centrifuged and resuspended to 50% hematocrit. Then, the resuspended culture was carefully laid on top of the gradient with 3 mL 70% and 3 mL 40% percoll-sorbitol solution. After centrifugation at 2,300 × g for 20 min at 20°C, schizonts from the 40/70% interface were collected and washed twice with 10× volume of ICM. The collected parasites were resuspended in PBS to 2% hematocrit for hemolysis assay as described above.

[6] = test system: Plasmodium berghei (ANKA); assay type: in vivo; details: for Inhibition (%) of P. berghei growth: parasitemia on day 4, BALB/c mice
Description: The in vivo antimalarial activity of peptides was evaluated using a 4-day suppressive test in P. berghei-infected mouse model mice ([44]). The mice were divided into five groups of six mice. Donor mice were infected with 200 µL of P. berghei parasite inoculum by intraperitoneal injection. Parasitized blood was collected from the tail vein of donor mice and diluted with 0.9% sodium chloride solution. Mice were then infected with saline suspension of 1 × 10^7 parasitized erythrocytes (0.2 mL) by intraperitoneal injection (Day0). Four hours after infection, each of the three groups of mice was treated with peptide by intraperitoneal injection at daily doses of 10, 25, and 50 mg/kg for 4 consecutive days. Positive control mice were treated with chloroquine at daily doses of 10 mg/kg and negative control mice with normal saline. On day 4 (96 hours post infection), the parasitemia of each mouse was determined under a light microscope by examination of Giemsa’s solution-stained thin blood smears prepared from mouse tail blood ([28]). The mean parasitemia in each group of mice was used to calculate the % suppression for each dose using the following formula:
%suppression = (parasitemia of negative control − parasitemia of test) * 100/parasitemia of negative control.
The antimalarial activity of the peptides was determined from the ratio of the percentage of parasite reduction in treated and negative control groups ([44]). Results were expressed as median (range) values.

[7] = 40 µM An-cecB or 200 µM An-cecB-1, total 20 / 22

Description for HEK293T cells: (§2) The mammalian cell lines HepG2 and HEK293T were used for cytotoxicity tests. The cells were cultured in Dulbecco’s modified Eagle medium supplemented with 10% fetal bovine serum and 1% penicillin/streptomycin in an incubator at 37°C with 5% CO2. Cells were seeded at a density of 1 × 10^5 cells/mL per well into a 96-well plate overnight and treated with different concentrations of peptides for 48 hours. To analyze the CC50 of peptides, a series of concentrations of peptides (0, 5, 10, 20, 30, 40, 50, 60, and 70 µM) were set to detect their cytotoxic concentrations. Then, 10% CCK-8 solution was added into each well and incubated for another 2 hours. The absorbance was monitored by a microplate reader at 450 nm. PBS was used as a negative control and the inhibition of each drug was normalized to that of the PBS control. CC50 was calculated by GraphPad Prism. Two independent assays with three technical replicates each time were conducted.
Description for HepG2 cells: as §2

In the case of “APRWKFGKRLEKLGRNVFRAA KKALPVIAGYKAL-NH2 [An-cecB]”, the CC50 (HepG2 cells) is reported as 60.43 µM, the “Normal (number of parasites)” value ([1]; 40 µM An-cecB or 200 µM An-cecB-1, 30 or 60 min, total 20 (An-cecB), 22 (An-cecB-1)) is reported as 7 and the “Disintegration (number of parasites)” value [1, 7] is reported as 3. For the same sequence, the “Parasite disoriented (number of parasites)” value [1, 7] was 4, the “Parasite membrane dissolution (number of parasites)” value [1, 7] was 7 and the “Parasite shrunken (number of parasites)” value [1, 7] was 9. The “Vacuole formation (number of parasites)” value [1, 7] was 3, the MIC ([2]; OD600) was 30 µM and the MIC50 ([2]; OD600, GraphPad Prism) was 7.314 µM. For the same sequence, the MIC ([3]; OD600) was 3.75 µM, the MIC50 ([3]; OD600, GraphPad Prism) was 0.63 µM and the MIC (Bacillus subtilis (ATCC); OD600) was 3.75 µM. For the same sequence, the MIC50 (Bacillus subtilis (ATCC); OD600, GraphPad Prism) was 0.85 µM, the “hemolysis of cholesterol-depleted erythrocytes” value [4] was “significantly higher than that of controls” and the “hemolytic activity to infected erythrocytes” value [5] was “specifically lysed infected erythrocytes”. For the same sequence, the CC50 (HEK293T cells) was 57.33 µM, the “cytotoxicity to HEK293T cells” value (HEK293T cells) was “dose-dependently inhibited the cell viability” and the “Inhibition (%) of P. berghei growth” value ([6]; 10 mg/kg daily i.p. for 4 consecutive days) was 0.63%. For the same sequence, the “Inhibition (%) of P. berghei growth” value ([6]; 25 mg/kg daily i.p. for 4 consecutive days) was 5.12% and the “mortality of infected mice in the 4-day suppressive test” value ([6]; in vivo) was “all infected mice died before the end of the experiment”.

Source: paper PMC11232398, “Antimalarial activity of cecropin antimicrobial peptides derived from Anopheles mosquitoes” (Antimicrobial Agents and Chemotherapy, 2024)
